According to PubChem BioAssay (NCI):
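Method: 48-hour compound exposure of cells in 96-well plates, five concentrations, linear interpolation of endpoints. TGI is the concentration that stops growth completely.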

Legend:
Assay in all cases: NCI tumour cell line growth inhibition, 48 h
SNB-75 CNS = test system: SNB-75 CNS
HCT-15 colon = test system: HCT-15 colon
SK-MEL-5 melanoma = test system: SK-MEL-5 melanoma
SNB-19 CNS = test system: SNB-19 CNS
A498 renal = test system: A498 renal
K-562 leukemia = test system: K-562 leukemia
MDA-N = test system: MDA-N
OVCAR-8 ovarian = test system: OVCAR-8 ovarian
HOP-62 NSCLC = test system: HOP-62 NSCLC
UACC-62 melanoma = test system: UACC-62 melanoma
RXF 393 renal = test system: RXF 393 renal
SK-OV-3 ovarian = test system: SK-OV-3 ovarian
NCI-H226 lung = test system: NCI-H226 lung
LOX IMVI melanoma = test system: LOX IMVI melanoma
DU-145 prostate = test system: DU-145 prostate
786-0 renal = test system: 786-0 renal
SK-MEL-2 melanoma = test system: SK-MEL-2 melanoma
MDA-MB-435 = test system: MDA-MB-435
SK-MEL-28 melanoma = test system: SK-MEL-28 melanoma
NCI-H522 lung = test system: NCI-H522 lung
UO-31 renal = test system: UO-31 renal
OVCAR-4 ovarian = test system: OVCAR-4 ovarian
CAKI-1 renal = test system: CAKI-1 renal
EKVX NSCLC = test system: EKVX NSCLC
IGROV1 ovarian = test system: IGROV1 ovarian
U251 CNS = test system: U251 CNS
MOLT-4 leukemia = test system: MOLT-4 leukemia
CCRF-CEM leukemia = test system: CCRF-CEM leukemia
OVCAR-5 ovarian = test system: OVCAR-5 ovarian
M14 melanoma = test system: M14 melanoma
HT29 colon = test system: HT29 colon
SF-268 CNS = test system: SF-268 CNS
NCI-H460 lung = test system: NCI-H460 lung
T-47D breast = test system: T-47D breast
SW-620 colon = test system: SW-620 colon
MALME-3M melanoma = test system: MALME-3M melanoma
UACC-257 melanoma = test system: UACC-257 melanoma
SF-295 CNS = test system: SF-295 CNS
NCI-H23 lung = test system: NCI-H23 lung
KM12 colon = test system: KM12 colon
SR leukemia = test system: SR leukemia
MDA-MB-231 breast = test system: MDA-MB-231 breast
SF-539 CNS = test system: SF-539 CNS
HOP-92 NSCLC = test system: HOP-92 NSCLC
HCT-116 colon = test system: HCT-116 colon
A549 NSCLC = test system: A549 NSCLC
HL-60(TB) leukemia = test system: HL-60(TB) leukemia
NCI/ADR-RES ovarian = test system: NCI/ADR-RES ovarian
ACHN renal = test system: ACHN renal
PC-3 prostate = test system: PC-3 prostate
HCC-2998 colon = test system: HCC-2998 colon
SN12C renal = test system: SN12C renal
COLO 205 colon = test system: COLO 205 colon
OVCAR-3 ovarian = test system: OVCAR-3 ovarian
TK-10 renal = test system: TK-10 renal
HS 578T breast = test system: HS 578T breast
RPMI-8226 leukemia = test system: RPMI-8226 leukemia
MCF7 breast = test system: MCF7 breast

## O=C(/C=C/c1ccc(O)cc1)c1ccc2c(c1)OCO2
SNB-75 CNS
  TGI: 50.3 µM
HCT-15 colon
  TGI: 83.8 µM
SK-MEL-5 melanoma
  TGI: 29.4 µM
SNB-19 CNS
  TGI: 36.3 µM
A498 renal
  TGI: 38.4 µM
K-562 leukemia
  TGI: 81.5 µM
MDA-N
  TGI: 86.1 µM
OVCAR-8 ovarian
  TGI: 29.6 µM
HOP-62 NSCLC
  TGI: 38.5 µM
UACC-62 melanoma
  TGI: 47.6 µM
RXF 393 renal
  TGI: 38.7 µM
SK-OV-3 ovarian
  TGI: 82.6 µM
NCI-H226 lung
  TGI: 34.1 µM
LOX IMVI melanoma
  TGI: 47 µM
DU-145 prostate
  TGI: 76.7 µM
786-0 renal
  TGI: 57.7 µM
SK-MEL-2 melanoma
  TGI: 62.4 µM
MDA-MB-435
  TGI: 69.5 µM
SK-MEL-28 melanoma
  TGI: 42.3 µM
NCI-H522 lung
  TGI: 34.2 µM
UO-31 renal
  TGI: 38.8 µM
OVCAR-4 ovarian
  TGI: 48 µM
CAKI-1 renal
  TGI: 35.3 µM
EKVX NSCLC
  TGI: > 100 µM
IGROV1 ovarian
  TGI: 28.9 µM
U251 CNS
  TGI: 36.2 µM
MOLT-4 leukemia
  TGI: 52.3 µM
CCRF-CEM leukemia
  TGI: 5.69 µM
OVCAR-5 ovarian
  TGI: 93 µM
M14 melanoma
  TGI: 51.9 µM
HT29 colon
  TGI: 33.7 µM
SF-268 CNS
  TGI: 58.5 µM
NCI-H460 lung
  TGI: 77.2 µM
T-47D breast
  TGI: 75.3 µM
SW-620 colon
  TGI: 42.9 µM
MALME-3M melanoma
  TGI: > 100 µM
UACC-257 melanoma
  TGI: 33.6 µM
SF-295 CNS
  TGI: 55.5 µM
NCI-H23 lung
  TGI: 39.2 µM
KM12 colon
  TGI: 33.7 µM
SR leukemia
  TGI: 33.6 µM
MDA-MB-231 breast
  TGI: 37.4 µM
SF-539 CNS
  TGI: 26.8 µM
HOP-92 NSCLC
  TGI: 58.8 µM
HCT-116 colon
  TGI: 25.4 µM
A549 NSCLC
  TGI: 44.8 µM
HL-60(TB) leukemia
  TGI: 41.3 µM
NCI/ADR-RES ovarian
  TGI: 67.9 µM
ACHN renal
  TGI: 52.8 µM
PC-3 prostate
  TGI: 62.2 µM
HCC-2998 colon
  TGI: 40.5 µM
SN12C renal
  TGI: 30.7 µM
COLO 205 colon
  TGI: 32 µM
OVCAR-3 ovarian
  TGI: 41 µM

## COc1cc(C2c3cc4c(cc3[C@@H](Nc3ccccc3)C3COC[C@H]23)OCO4)cc(OC)c1O (some centres undefined)
SNB-75 CNS
  TGI: 11.9 µM
HCT-15 colon
  TGI: 12.9 µM
SK-MEL-5 melanoma
  TGI: 68.9 µM
SNB-19 CNS
  TGI: > 100 µM
MDA-N
  TGI: > 100 µM
OVCAR-8 ovarian
  TGI: > 100 µM
HOP-62 NSCLC
  TGI: > 100 µM
SK-OV-3 ovarian
  TGI: > 100 µM
TK-10 renal
  TGI: > 100 µM
786-0 renal
  TGI: 2.3 µM
SK-MEL-28 melanoma
  TGI: 39.1 µM
NCI-H522 lung
  TGI: 25.8 µM
UO-31 renal
  TGI: 3.71 µM
OVCAR-4 ovarian
  TGI: > 100 µM
EKVX NSCLC
  TGI: > 100 µM
IGROV1 ovarian
  TGI: > 100 µM
U251 CNS
  TGI: 16.1 µM
HS 578T breast
  TGI: 12.4 µM
CCRF-CEM leukemia
  TGI: 2.15 µM
OVCAR-5 ovarian
  TGI: 9.83 µM
M14 melanoma
  TGI: > 100 µM
HT29 colon
  TGI: 45.5 µM
SF-268 CNS
  TGI: > 100 µM
NCI-H460 lung
  TGI: 5 µM
T-47D breast
  TGI: > 100 µM
SW-620 colon
  TGI: > 100 µM
UACC-257 melanoma
  TGI: 50.4 µM
SF-295 CNS
  TGI: 3.36 µM
KM12 colon
  TGI: 32.5 µM
SR leukemia
  TGI: 16.5 µM
MDA-MB-231 breast
  TGI: 24.5 µM
SF-539 CNS
  TGI: 4.35 µM
RPMI-8226 leukemia
  TGI: 5.22 µM
HCT-116 colon
  TGI: 19.8 µM
A549 NSCLC
  TGI: 14 µM
NCI/ADR-RES ovarian
  TGI: > 100 µM
ACHN renal
  TGI: 3.82 µM
MCF7 breast
  TGI: > 100 µM
PC-3 prostate
  TGI: > 100 µM
HCC-2998 colon
  TGI: > 100 µM
SN12C renal
  TGI: 54.3 µM
COLO 205 colon
  TGI: 70.7 µM

## O=C(CP(=O)(O)O)NC(CC(=O)OCc1ccccc1)C(=O)OCc1ccccc1 (centres undefined)
SNB-75 CNS
  TGI: > 100 µM
HCT-15 colon
  TGI: > 100 µM
SK-MEL-5 melanoma
  TGI: > 100 µM
SNB-19 CNS
  TGI: > 100 µM
A498 renal
  TGI: > 100 µM
K-562 leukemia
  TGI: > 100 µM
MDA-N
  TGI: > 100 µM
OVCAR-8 ovarian
  TGI: > 100 µM
HOP-62 NSCLC
  TGI: > 100 µM
UACC-62 melanoma
  TGI: > 100 µM
RXF 393 renal
  TGI: > 100 µM
SK-OV-3 ovarian
  TGI: > 100 µM
NCI-H226 lung
  TGI: > 100 µM
DU-145 prostate
  TGI: > 100 µM
786-0 renal
  TGI: > 100 µM
SK-MEL-2 melanoma
  TGI: > 100 µM
MDA-MB-435
  TGI: > 100 µM
SK-MEL-28 melanoma
  TGI: > 100 µM
NCI-H522 lung
  TGI: > 100 µM
UO-31 renal
  TGI: > 100 µM
OVCAR-4 ovarian
  TGI: > 100 µM
CAKI-1 renal
  TGI: > 100 µM
EKVX NSCLC
  TGI: > 100 µM
IGROV1 ovarian
  TGI: > 100 µM
U251 CNS
  TGI: > 100 µM
MOLT-4 leukemia
  TGI: > 100 µM
HS 578T breast
  TGI: > 100 µM
CCRF-CEM leukemia
  TGI: > 100 µM
OVCAR-5 ovarian
  TGI: > 100 µM
M14 melanoma
  TGI: > 100 µM
HT29 colon
  TGI: > 100 µM
SF-268 CNS
  TGI: > 100 µM
NCI-H460 lung
  TGI: > 100 µM
T-47D breast
  TGI: > 100 µM
SW-620 colon
  TGI: > 100 µM
MALME-3M melanoma
  TGI: > 100 µM
UACC-257 melanoma
  TGI: > 100 µM
SF-295 CNS
  TGI: > 100 µM
NCI-H23 lung
  TGI: > 100 µM
SR leukemia
  TGI: > 100 µM
MDA-MB-231 breast
  TGI: > 100 µM
SF-539 CNS
  TGI: > 100 µM
RPMI-8226 leukemia
  TGI: > 100 µM
HOP-92 NSCLC
  TGI: > 100 µM
HCT-116 colon
  TGI: > 100 µM
A549 NSCLC
  TGI: > 100 µM
HL-60(TB) leukemia
  TGI: > 100 µM
NCI/ADR-RES ovarian
  TGI: > 100 µM
ACHN renal
  TGI: > 100 µM
PC-3 prostate
  TGI: > 100 µM
HCC-2998 colon
  TGI: > 100 µM
SN12C renal
  TGI: > 100 µM
COLO 205 colon
  TGI: > 100 µM
OVCAR-3 ovarian
  TGI: > 100 µM

## CC(=O)N=C1N(/C=C2\C(=O)Oc3ccccc3C2=O)C(=O)/C(=C/c2ccc(OC(C)=O)cc2)N1C
SNB-75 CNS
  TGI: > 100 µM
HCT-15 colon
  TGI: > 100 µM
SK-MEL-5 melanoma
  TGI: > 100 µM
A498 renal
  TGI: > 100 µM
K-562 leukemia
  TGI: > 100 µM
MDA-N
  TGI: > 100 µM
OVCAR-8 ovarian
  TGI: > 100 µM
HOP-62 NSCLC
  TGI: > 100 µM
UACC-62 melanoma
  TGI: > 100 µM
RXF 393 renal
  TGI: > 100 µM
SK-OV-3 ovarian
  TGI: > 100 µM
NCI-H226 lung
  TGI: > 100 µM
LOX IMVI melanoma
  TGI: > 100 µM
DU-145 prostate
  TGI: > 100 µM
786-0 renal
  TGI: > 100 µM
SK-MEL-2 melanoma
  TGI: > 100 µM
MDA-MB-435
  TGI: > 100 µM
SK-MEL-28 melanoma
  TGI: > 100 µM
NCI-H522 lung
  TGI: > 100 µM
OVCAR-4 ovarian
  TGI: > 100 µM
CAKI-1 renal
  TGI: > 100 µM
EKVX NSCLC
  TGI: > 100 µM
IGROV1 ovarian
  TGI: > 100 µM
U251 CNS
  TGI: > 100 µM
MOLT-4 leukemia
  TGI: > 100 µM
HS 578T breast
  TGI: > 100 µM
CCRF-CEM leukemia
  TGI: > 100 µM
OVCAR-5 ovarian
  TGI: > 100 µM
M14 melanoma
  TGI: > 100 µM
HT29 colon
  TGI: > 100 µM
SF-268 CNS
  TGI: > 100 µM
NCI-H460 lung
  TGI: > 100 µM
T-47D breast
  TGI: > 100 µM
SW-620 colon
  TGI: > 100 µM
MALME-3M melanoma
  TGI: > 100 µM
UACC-257 melanoma
  TGI: > 100 µM
SF-295 CNS
  TGI: > 100 µM
NCI-H23 lung
  TGI: > 100 µM
KM12 colon
  TGI: > 100 µM
SR leukemia
  TGI: > 100 µM
MDA-MB-231 breast
  TGI: > 100 µM
SF-539 CNS
  TGI: > 100 µM
RPMI-8226 leukemia
  TGI: > 100 µM
HCT-116 colon
  TGI: > 100 µM
A549 NSCLC
  TGI: > 100 µM
HL-60(TB) leukemia
  TGI: > 100 µM
NCI/ADR-RES ovarian
  TGI: > 100 µM
ACHN renal
  TGI: > 100 µM
MCF7 breast
  TGI: > 100 µM
PC-3 prostate
  TGI: > 100 µM
HCC-2998 colon
  TGI: > 100 µM
SN12C renal
  TGI: > 100 µM
COLO 205 colon
  TGI: > 100 µM
OVCAR-3 ovarian
  TGI: > 100 µM
